Data from patent publication US10646488B2 (Araxes Pharma LLC, priority 2016, dated 2020).

target: T1, KRAS G12C 1-169, his-tagged protein, GDP-loaded (Homo sapiens, UniProt P01116, G12C); test: Covalent binding (% modification) to KRAS G12C by mass spectrometry; settings: covalent binding to KRAS G12C after a ten minute incubation period; also: test concentration or dose not given here
T1 construct: KRAS G12C 1-169, his-tagged protein, GDP-loaded

How did the Binding % turn out when `C=CC(=O)N1CCN(c2nc(N)nc3c(F)c(-c4c(O)cccc4F)c(Cl)cc23)C[C@H]1C` [Compound 1, 1-((2R)-4-(2-amino-6-chloro-8-fluoro-7-(2-fluoro-6-hydroxyphenyl)quinazolin-4-yl)-2-methylpiperazin-1-yl)prop-2-en-1-one] was run?
Its Binding % is “++ (++ indicates binding activity from 50 to 90%)”.

How did the Binding % turn out when `C=CC(=O)N1C(C)CN(c2nc(N)nc3c(F)c(-c4c(O)cccc4F)c(Cl)cc23)CC1C` (stereo not drawn) [Compound 2, 1-(4-(2-amino-6-chloro-8-fluoro-7-(2-fluoro-6-hydroxyphenyl)quinazolin-4-yl)-2,6-dimethyl-piperazin-1-yl) prop-2-en-1-one] was run?
Its Binding % is “++ (++ indicates binding activity from 50 to 90%)”.

Which Binding % does the source give for `C=CC(=O)N1CCN(c2nc(N)nc3c(F)c(-c4c(O)cccc4F)c(Cl)cc23)C[C@@H]1C` [Compound 3, 1-((2S)-4-(2-amino-6-chloro-8-fluoro-7-(2-fluoro-6-hydroxyphenyl)quinazolin-4-yl)-2-methylpiperazin-1-yl)prop-2-en-1-one] here?
The Binding % was “++ (++ indicates binding activity from 50 to 90%)”.

`C=CC(=O)N1CCN(c2nc(N)nc3c(F)c(-c4c(O)cccc4F)c(Cl)cc23)[C@@H](C)C1` [Compound 4, 1-((3S)-4-(2-amino-6-chloro-8-fluoro-7-(2-fluoro-6-hydroxyphenyl)quinazolin-4-yl)-3-methylpiperazin-1-yl)prop-2-en-1-one] was tested. Which Binding % did it give?
The Binding % was “++ (++ indicates binding activity from 50 to 90%)”.

How did the Binding % turn out when `C=CC(=O)N1CCN(c2nc(N)nc3c(F)c(-c4c(C)ccc5cn[nH]c45)c(Cl)cc23)[C@@H](C)C1` [Compound 5, 1-((3S)-4-(2-amino-6-chloro-8-fluoro-7-(6-methyl-1H-indazol-7-yl)quinazolin-4-yl)-3-methylpiperazin-1-yl)prop-2-en-1-one] was run?
The Binding % was “++ (++ indicates binding activity from 50 to 90%)”.

With `C=CC(=O)N1[C@H](C)CN(c2nc(N)nc3c(F)c(-c4c(C)ccc5cn[nH]c45)c(Cl)cc23)C[C@@H]1C` [Compound 6, 1-((2S,6R)-4-(2-amino-6-chloro-8-fluoro-7-(6-methyl-1H-indazol-7-yl)quinazolin-4-yl)-2,6-dimethyl-piperazin-1-yl) prop-2-en-1-one] as the compound, how does the Binding % read?
The Binding % was “++ (++ indicates binding activity from 50 to 90%)”.

With `C=CC(=O)N1[C@H](C)CN(c2nc(N)nc3c(F)c(-c4cc(O)cc5ccccc45)c(Cl)cc23)C[C@@H]1C` [Compound 7, 1-((2S,6R)-4-(2-amino-6-chloro-8-fluoro-7-(3-hydroxynaphthalen-1-yl)quinazolin-4-yl)-2,6-dimethyl-piperazin-1-yl) prop-2-en-1-one] as the compound, how does the Binding % read?
Its Binding % is “++ (++ indicates binding activity from 50 to 90%)”.

`C=CC(=O)N1CCN(c2nc(N3CC(N(C)C)C3)nc3c(F)c(-c4c(O)cccc4F)c(Cl)cc23)[C@@H](C)C1` [Compound 8, 1-((3 S)-4-(6-Chloro-2-(3-(Dimethylamino)Azetidin-1-Yl)-8-Fluoro-7-(2-Fluoro-6-Hydroxyphenyl)Quinazolin-4-Yl)-3-Methylpiperazin-1-Yl)Prop-2-En-1-One] was tested. Which Binding % did it give?
The Binding % was “+++ (+++ indicates binding activity greater than 90%)”.

`C=CC(=O)N1CCN(c2nc(OCCN(CC)CC)nc3c(F)c(-c4c(O)cccc4F)c(Cl)cc23)[C@@H](C)C1` [Compound 9, 1-((3S)-4-(6-chloro-2-(2-(diethylamino)ethoxy)-8-fluoro-7-(2-fluoro-6-hydroxyphenyl)quinazolin-4-yl)-3-methylpiperazin-1-yl)prop-2-en-1-one] was tested. Which Binding % did it give?
The Binding % was “++ (++ indicates binding activity from 50 to 90%)”.

`C=CC(=O)N1CCN(c2nc(N)nc3c(F)c(-c4c(C)ccc5[nH]ncc45)c(Cl)cc23)[C@@H](C)C1` [Compound 10, 1-((3S)-4-(2-amino-6-chloro-8-fluoro-7-(5-methyl-1H-indazol-4-yl)quinazolin-4-yl)-3-methyl-piperazin-1-yl) prop-2-en-1-one] was tested. Which Binding % did it give?
The Binding % was “+++ (+++ indicates binding activity greater than 90%)”.

For `C=CC(=O)N1CCN(c2nc(OCCN3CC(F)(F)C3)nc3c(F)c(-c4c(O)cccc4F)c(Cl)cc23)[C@@H](C)C1` [Compound 11, 1-((3S)-4-(6-chloro-2-(2-(3,3-difluoroazetidin-1-yl)ethoxy)-8-fluoro-7-(2-fluoro-6-hydroxyphenyl)quinazolin-4-yl)-3-methylpiperazin-1-yl)prop-2-en-1-one], which Binding % is on record?
The Binding % was “+++ (+++ indicates binding activity greater than 90%)”.

How did the Binding % turn out when `C=CC(=O)N1CCN(c2nc(N)nc3c(F)c(-c4cc(O)cc5ccccc45)c(Cl)cc23)[C@@H](C)C1` [Compound 12, 1-((3 S)-4-(2-Amino-6-Chloro-8-Fluoro-7-(3-Hydroxynaphthalen-1-Yl)Quinazolin-4-Yl)-3-Methylpiperazin-1-Yl)Prop-2-En-1-One] was run?
Its Binding % is “+++ (+++ indicates binding activity greater than 90%)”.

For `C=CC(=O)N1[C@H](C)CN(c2nc(N)nc3c(F)c(-c4c(C)ccc5cn[nH]c45)c(Cl)cc23)C[C@@H]1C` [Compound 15, 1-((2S,6R)-4-(2-amino-6-chloro-8-fluoro-7-(6-methyl-1H-indazol-7-yl)quinazolin-4-yl)-2,6-dimethyl-piperazin-1-yl) prop-2-en-1-one], which Binding % is on record?
The Binding % was “++ (++ indicates binding activity from 50 to 90%)”.

Which Binding % does the source give for `C=CC(=O)N1C[C@@H](C)N(c2nc(OCCN(CC)CC)nc3c(F)c(-c4c(O)cccc4F)c(Cl)cc23)[C@@H](C)C1` [Compound 16, 1-((3S,5R)-4-(6-chloro-2-(2-(diethylamino)ethoxy)-8-fluoro-7-(2-fluoro-6-hydroxyphenyl)quinazolin-4-yl)-3,5-dimethylpiperazin-1-yl)prop-2-en-1-one] here?
The Binding % was “++ (++ indicates binding activity from 50 to 90%)”.

With `C=CC(=O)N1C[C@@H](C)N(c2nc(N)nc3c(F)c(-c4c(O)cccc4F)c(Cl)cc23)[C@@H](C)C1` [Compound 17, 1-((3S,5R)-4-(2-amino-6-chloro-8-fluoro-7-(2-fluoro-6-hydroxyphenyl)quinazolin-4-yl)-3,5-dimethylpiperazin-1-yl)prop-2-en-1-one] as the compound, how does the Binding % read?
Its Binding % is “++ (++ indicates binding activity from 50 to 90%)”.

`C=CC(=O)N1C[C@@H](C)N(c2nc(N)nc3c(F)c(-c4cc(O)cc5ccccc45)c(Cl)cc23)[C@@H](C)C1` [Compound 18, 1-((3S,5R)-4-(2-amino-6-chloro-8-fluoro-7-(3-hydroxynaphthalen-1-yl)quinazolin-4-yl)-3,5-dimethyl-piperazin-1-yl) prop-2-en-1-one] was tested. Which Binding % did it give?
Its Binding % is “++ (++ indicates binding activity from 50 to 90%)”.

With `C=CC(=O)N1[C@H](C)CN(c2nc(NC3CCN(C4CC4)CC3)nc3c(F)c(-c4c(C)ccc5cn[nH]c45)c(Cl)cc23)C[C@@H]1C` [Compound 19, 1-((2S,6R)-4-(6-Chloro-2-((1-Cyclopropylpiperidin-4-Yl)Amino)-8-Fluoro-7-(6-Methyl-1H-Indazol-7-Yl)Quinazolin-4-Yl)-2,6-Dimethylpiperazin-1-Yl)Prop-2-En-1-One] as the compound, how does the Binding % read?
The Binding % was “++ (++ indicates binding activity from 50 to 90%)”.

For `C=CC(=O)N1[C@H](C)CN(c2nc(NC3CCN(C4CC4)CC3)nc3c(F)c(-c4c(O)cccc4F)c(Cl)cc23)C[C@@H]1C` [Compound 20, 1-((2R,6S)-4-(6-chloro-2-((1-cyclopropyl-piperidin-4-yl)amino)-8-fluoro-7-(2-fluoro-6-hydroxyphenyl)quinazolin-4-yl)-2,6-dimethyl-piperazin-1-yl) prop-2-en-1-one], which Binding % is on record?
Its Binding % is “++ (++ indicates binding activity from 50 to 90%)”.

How did the Binding % turn out when `C=CC(=O)N1C[C@@H](C)N(c2nc(N3CC(N(C)C)C3)nc3c(F)c(-c4c(O)cccc4F)c(Cl)cc23)[C@@H](C)C1` [Compound 21, 1-((3S,5R)-4-(6-chloro-2-(3-(dimethylamino)azetidin-1-yl)-8-fluoro-7-(2-fluoro-6-hydroxyphenyl)quinazolin-4-yl)-3,5-dimethyl-piperazin-1-yl) prop-2-en-1-one] was run?
Its Binding % is “++ (++ indicates binding activity from 50 to 90%)”.

For `C=CC(=O)N1C[C@@H](C)N(c2nc(OCCN3CC(F)(F)C3)nc3c(F)c(-c4c(O)cccc4F)c(Cl)cc23)[C@@H](C)C1` [Compound 22, 1-((3S,5R)-4-(6-chloro-2-(2-(3,3-difluoroazetidin-1-yl)ethoxy)-8-fluoro-7-(2-fluoro-6-hydroxyphenyl)quinazolin-4-yl)-3,5-dimethyl-piperazin-1-yl) prop-2-en-1-one], which Binding % is on record?
The Binding % was “++ (++ indicates binding activity from 50 to 90%)”.

For `C=CC(=O)N1[C@H](C)CN(c2nc(OCCN(CC)CC)nc3c(F)c(-c4c(C)ccc5cn[nH]c45)c(Cl)cc23)C[C@@H]1C` [Compound 23, 1-((2R,6S)-4-(6-chloro-2-(2-(diethylamino)ethoxy)-8-fluoro-7-(6-methyl-1H-indazol-7-yl)quinazolin-4-yl)-2,6-dimethyl-piperazin-1-yl) prop-2-en-1-one], which Binding % is on record?
The Binding % was “++ (++ indicates binding activity from 50 to 90%)”.

Which Binding % does the source give for `C=CC(=O)N1C[C@H](C)N(c2nc(N3CC(N(C)C)C3)nc3c(F)c(-c4c(O)cccc4F)c(Cl)cc23)C[C@H]1C` [Compound 24, 1-((2R,5S)-4-(6-chloro-2-(3-(dimethylamino)azetidin-1-yl)-8-fluoro-7-(2-fluoro-6-hydroxyphenyl)quinazolin-4-yl)-2,5-dimethyl-piperazin-1-yl) prop-2-en-1-one] here?
The Binding % was “++ (++ indicates binding activity from 50 to 90%)”.

With `C=CC(=O)N1[C@H](C)CN(c2nc(N3CC(N(C)C)C3)nc3c(F)c(-c4c(O)cccc4F)c(Cl)cc23)C[C@@H]1C` [Compound 26, 1-((2R,6S)-4-(6-chloro-2-(3-(dimethylamino)azetidin-1-yl)-8-fluoro-7-(2-fluoro-6-hydroxyphenyl)quinazolin-4-yl)-2,6-dimethyl-piperazin-1-yl) prop-2-en-1-one] as the compound, how does the Binding % read?
The Binding % was “++ (++ indicates binding activity from 50 to 90%)”.

same assay, conditions: covalent binding to KRAS G12C after a three minute incubation period

Which Binding % does the source give for `[2H]C([2H])([2H])N(C1CN(c2nc(N3C[C@@H](C)N(C(=O)C=C)C[C@@H]3C)c3cc(Cl)c(-c4cc(O)cc5ccccc45)c(F)c3n2)C1)C([2H])([2H])[2H]` (atropisomer, axis not shown) [Compound 229] here?
Its Binding % is “+ (+ indicates binding activity greater than 0% and up to 50%)”.
